# What was measured:
# GIST882 cell line [1] = experiment: Cancer cell cytotoxicity assay (sulforhodamine B); assay type: cell-based
# Method: (§1) To validate the hypothesis that the designed c-kit/PDGFR tyrosine kinase inhibitors mediate GIST882 cell killing and PDGFR-mediated cell killing of pancreatic cancer cell lines (CFPAC-1, PANC-1 and MIA PaCa-2), an in vitro cytotoxicity assay was performed. The GIST882 cell line used in this study has a c-kit gain-of-function mutation (K642E). […] First the cells were cultured. GIST882 cells were provided by Dr. Jonathan A. Fletcher (Dana-Farber Cancer Institute, Boston, Mass.). PANC-1 and MIAPaCa-2 cells were provided by Dr. Daniel Von Hoff (Arizona Cancer Center, Tucson, Ariz.). […] All the cell lines were incubated in a humidified incubator at 37° C. with 5% CO2 atmosphere.
# (§2) After incubation for 4 days at 37° C. in a humidified incubator, the cells were fixed with 10% Trichloroacetic acid solution (Catalog No. 490-10, Sigma). Subsequently, they were labeled with 0.04% Sulforhodamine B (S9012, Sigma) in 1% acetic acid. After multiple washes to remove excess dye, 100 μl of 50 mM Tris solution was added to each well in order to dissolve the dye. The absorbance of each well was read on a plate reader (Wallac Vector^2, PerkinElmer) at the wavelength of 570 nm. Data were expressed as the percentage of survival of control calculated from the absorbance corrected for background absorbance. The surviving percent of cells was determined by dividing the mean absorbance values of the […] by the mean absorbance values of the control and multiplying by 100.
# c-Kit = c-Kit (Homo sapiens, UniProt P10721); experiment: Autophosphorylation assay with γ-32P-ATP; assay type: biochemical; settings: FIG. 28A
# Chain of c-Kit (P10721 26-976): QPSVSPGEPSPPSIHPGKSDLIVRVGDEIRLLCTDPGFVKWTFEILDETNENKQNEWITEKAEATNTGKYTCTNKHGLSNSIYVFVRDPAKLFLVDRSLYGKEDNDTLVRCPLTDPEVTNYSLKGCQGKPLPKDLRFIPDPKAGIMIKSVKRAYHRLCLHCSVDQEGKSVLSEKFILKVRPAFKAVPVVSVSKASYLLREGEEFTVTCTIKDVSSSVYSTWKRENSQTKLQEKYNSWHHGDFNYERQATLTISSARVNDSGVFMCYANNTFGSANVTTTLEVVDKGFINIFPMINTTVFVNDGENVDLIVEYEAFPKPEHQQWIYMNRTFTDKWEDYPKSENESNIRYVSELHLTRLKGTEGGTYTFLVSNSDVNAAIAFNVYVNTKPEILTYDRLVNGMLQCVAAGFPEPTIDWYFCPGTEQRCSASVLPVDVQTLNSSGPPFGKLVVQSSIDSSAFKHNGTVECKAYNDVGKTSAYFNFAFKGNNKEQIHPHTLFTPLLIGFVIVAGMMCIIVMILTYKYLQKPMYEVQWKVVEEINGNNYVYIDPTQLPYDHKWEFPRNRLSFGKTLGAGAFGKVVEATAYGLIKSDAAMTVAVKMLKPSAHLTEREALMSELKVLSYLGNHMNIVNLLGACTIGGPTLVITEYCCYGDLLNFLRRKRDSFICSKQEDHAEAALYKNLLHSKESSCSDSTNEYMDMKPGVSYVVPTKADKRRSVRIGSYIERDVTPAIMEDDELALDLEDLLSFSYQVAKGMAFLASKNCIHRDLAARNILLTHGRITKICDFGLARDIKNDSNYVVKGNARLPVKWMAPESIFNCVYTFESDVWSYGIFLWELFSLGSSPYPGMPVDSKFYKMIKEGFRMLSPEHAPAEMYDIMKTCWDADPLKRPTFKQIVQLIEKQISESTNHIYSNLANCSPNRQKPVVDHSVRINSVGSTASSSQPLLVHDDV
# Method: Enzymes were incubated with the appropriate concentration of inhibitor and radiolabeled γ-^32P-ATP. After 30 minutes, the reaction mixtures were electrophoresed on an acrylamide gel and autophosphorylation, quantitated by the amount of radioactivity incorporated into the enzyme, was assayed.
# GIST882 cell line [2] = experiment: GIST882 cell growth assay (Cell-Titer-Glo); assay type: cell-based
# Method: (§3) Briefly, cells are seeded into 96-well, tissue-culture treated, opaque white plates (Thermo Electron, Vantaa, Finland), at between 5000 and 7500 cells per well, depending on the speed of cell proliferation, in 100 μl of appropriate growth medium (determined by the ATCC). Cells are then exposed to the appropriate concentration of drug or an equal amount of DMSO (drug diluent) and allowed to grow in its presence for 96 hours. Following this, 100 μl of Cell-Titer-Glo reagent (Promega, Inc., Madison, Wis.) is added to each well. Plates are then shaken for 2 minutes at room temperature to allow for cell lysis and incubated for 10 minutes to stabilize the luminescent signal. Similar to the Kinase-Glo assay reagent, this reagent contains both luciferase enzyme and its substrate luciferin. Luciferase, activated by ATP in the cell lysate, catalyzes the conversion of luciferin to oxyluciferin, a reaction which produces light. The amount of light produced is proportionate to the amount of ATP in the cell lysate, which is itself proportional to cell number and gives an index of cellular proliferation.
# as §3, with “Various compounds of the invention, including (IV-1-3) (also referred to as HPK16), (III-1-3) (also referred to as HPK56), (III-1-4) (also referred to as HPK57), (III-1-5) (also referred to as HPK59), and (II-2-7) (also referred to as HPK61) were tested for activity against GIST tumor cells using the GIST882 cell line. Briefly,” for “Briefly,”
# PANC-1 cells = experiment: Cancer cell cytotoxicity assay (sulforhodamine B); assay type: cell-based; settings: Homo sapiens, 96 h; PANC-1, 4 days; read-out: IC50 PDGFR PANC-1
# Method: To validate the hypothesis that the designed c-kit/PDGFR tyrosine kinase inhibitors mediate GIST882 cell killing and PDGFR-mediated cell killing of pancreatic cancer cell lines (CFPAC-1, PANC-1 and MIA PaCa-2), an in vitro cytotoxicity assay was performed. The GIST882 cell line used in this study has a c-kit gain-of-function mutation (K642E). The assay utilized the Cell Titer 965 Non-Radioactive Cell Proliferation Assay (Promega Corp., Madison, Wis.). First the cells were cultured. GIST882 cells were provided by Dr. Jonathan A. Fletcher (Dana-Farber Cancer Institute, Boston, Mass.). PANC-1 and MIAPaCa-2 cells were provided by Dr. Daniel Von Hoff (Arizona Cancer Center, Tucson, Ariz.). GIST882 cells were cultured in RPMI 1640 medium (Cat #21870-076, Invitrogen Corporation) supplemented with 300 mg/L L-glutamine, 100 unit/ml penicillin, 100 μg/ml streptomycin and 15% fetal bovine serum. PANC-1 and MIAPaCa-2 cells were maintained in RPMI 1640 medium (cat #10-040, Mediatech, Inc.) supplemented with 100 unit/ml penicillin, 100 μg/ml streptomycin and 10% fetal bovine serum. All the cell lines were incubated in a humidified incubator at 37° C. with 5% CO2 atmosphere.
# as §2, with “Cells were plated at a density of 2000 to 10000 cells per well, depending on their growth rate, in 0.1 mL medium on day 0 in 96-well Falcon microtiter plates (#3072, Becton-Dickinson Labware, Lincoln Park, N.J.). On day 1, 10 μL of serial dilutions of the individual compounds were added to the plates in replicates of 4. After incubation” for “After incubation”
# [3] = system: pancreatic cancer cell lines MIAPaCa-2 and PANC-1; experiment: Cancer cell cytotoxicity assay, range over both pancreatic lines; assay type: cell-based; settings: potency order
# Method: as §1
# as §2, with “After multiple washes to remove excess dye, 100 μl of 50 mM Tris solution was added to each well in order to dissolve the dye.” left out
smiles,measurement,setting,value
"COc1cc2[nH]c3ncnc(N4CCN(C(=S)NCc5ccc6c(c5)OCO6)CC4)c3c2cc1OC [HPK61, 4-(6,7-Dimethoxy-9H-1,3,9-triaza-fluoren-4-yl)-piperazine-1-carbothioic acid (benzo[1,3]dioxol-5-ylmethyl)-amide]",cells alive at day 4,"GIST882 cell line [1]; GIST882, day 4",5%
same,IC50,"GIST882 cell line [1]; Homo sapiens, 96 h, GIST882, 4 days, read-out: IC50 c-kit GIST882",0.45 µM
same,inhibition of c-Kit autophosphorylation (in words),c-Kit,dose-dependent
same,inhibitory activity in GIST882 cell line (in words),"GIST882 cell line [2]; FIG. 29, 96 hours",highest inhibitory activity
same,IC50,"GIST882 cell line [2]; Homo sapiens, GIST882, 96 hours",0.45 µM
same,IC50,PANC-1 cells,16 µM
same,IC50,[3],15.5 to 16 µM
